Tests used:
Format in all cases: in vivo
[1] = test system: Tetranychus urticae; test: Tetranychus urticae (Two-Spotted Spider Mite): Feeding/Contact Activity; details: foliar, 192 h, application rate of 200 ppm, sprayed bean leaf discs, mixed population (mobile stages), 8 days after infestation
Experimental: Bean leaf discs on agar in 24-well microtiter plates were sprayed with aqueous test solutions prepared from 10,000 ppm DMSO stock solutions. After drying the leaf discs were infested with a mite population of mixed ages. The samples were assessed for mortality on mixed population (mobile stages) 8 days after infestation.

[2] = test system: Myzus persicae; test: Myzus persicae (Green Peach Aphid). Systemic Activity; details: 144 h, test rate of 24 ppm, roots of infested pea seedlings in test solution, 6 days
Experimental: Roots of pea seedlings infested with an aphid population of mixed ages were placed directly into aqueous test solutions prepared from 10,000 DMSO stock solutions. The samples were assessed for mortality 6 days after placing seedlings into test solutions.

[3] = test system: Euschistus heros; test: Euschistus heros (Neotropical Brown Stink Bug); details: 120 h, application rate of 200 ppm, sprayed soybean leaves, N2 nymphs, 5 days after infestation, read-out: effect in at least one of the two categories (mortality or growth inhibition)
Experimental: Soybean leaves on agar in 24-well microtiter plates were sprayed with aqueous test solutions prepared from 10,000 ppm DMSO stock solutions. After drying the leaves were infested with N2 nymphs. The samples were assessed for mortality and growth inhibition in comparison to untreated samples 5 days after infestation.

[4] = test system: Myzus persicae; test: Myzus persicae (Green Peach Aphid): Feeding/Contact Activity; details: foliar, 144 h, application rate of 200 ppm, sprayed sunflower leaf discs, aphid population of mixed ages, 6 days after infestation
Experimental: Sunflower leaf discs were placed onto agar in a 24-well microtiter plate and sprayed with aqueous test solutions prepared from 10,000 ppm DMSO stock solutions. After drying, the leaf discs were infested with an aphid population of mixed ages. The samples were assessed for mortality 6 days after infestation.

[5] = test system: Spodoptera littoralis; test: Spodoptera littoralis (Egyptian Cotton Leaf Worm), sprayed cotton leaf discs; details: foliar, 72 h, application rate of 200 ppm, L1 larvae, 3 days after infestation
Experimental: Cotton leaf discs were placed onto agar in 24-well microtiter plates and sprayed with aqueous test solutions prepared from 10,000 ppm DMSO stock solutions. After drying the leaf discs were infested with five L1 larvae. The samples were assessed for mortality, anti-feeding effect, and growth inhibition in comparison to untreated samples 3 days after infestation. Control of Spodoptera littoralis by a test sample is given when at least one of the categories mortality, anti-feedant effect, and growth inhibition is higher than the untreated sample.

[6] = test system: Plutella xylostella; test: Plutella xylostella (Diamond Back Moth); details: 120 h, application rate of 200 ppm, artificial diet, L2 larvae, 5 days after infestation, read-out: effect in at least one of the two categories (mortality or growth inhibition)
Experimental: 24-well microtiter plates with artificial diet were treated with aqueous test solutions prepared from 10,000 ppm DMSO stock solutions by pipetting. After drying, the plates were infested with L2 larvae (10 to 15 per well). The samples were assessed for mortality and growth inhibition in comparison to untreated samples 5 days after infestation.

[7] = test system: Bemisia tabaci; test: Bemisia tabaci (Cotton White Fly): Feeding/Contact Activity; details: foliar, 144 h, application rate of 200 ppm, sprayed cotton leaf discs, adult white flies, 6 days after incubation
Experimental: Cotton leaf discs were placed on agar in 24-well microtiter plates and sprayed with aqueous test solutions prepared from 10,000 ppm DMSO stock solutions. After drying the leaf discs were infested with adult white flies. The samples were checked for mortality 6 days after incubation.

[8] = test system: Spodoptera littoralis; test: Spodoptera littoralis (Egyptian Cotton Leaf Worm), uptake by lettuce roots from agar; details: 144 h, test rate of 12.5 ppm, mixed with agar, absorbed by lettuce roots, Spodoptera eggs, 6 days after infestation, read-out: effect in at least one of the three categories (mortality, anti-feeding, or growth inhibition)
Text: Test compounds were applied by pipette from 10,000 ppm DMSO stock solutions into 24-well plates and mixed with agar. Lettuce seeds were placed onto the agar and the multi well plate was closed by another plate which contained also agar. After 7 days the compound was absorbed by the roots and the lettuce grew into the lid plate. The lettuce leaves were then cut off into the lid plate. Spodoptera eggs were pipetted through a plastic stencil onto a humid gel blotting paper and the lid plate was closed with it. The samples were assessed for mortality, anti-feedant effect and growth inhibition in comparison to untreated samples 6 days after infestation.

[9] = test system: Diabrotica balteata; test: Diabrotica balteata (Corn Root Worm); details: 96 h, application rate of 200 ppm, sprayed maize sprouts, L2 larvae, 4 days after infestation, read-out: effect in at least one of the two categories (mortality or growth inhibition)
Experimental: Maize sprouts placed onto an agar layer in 24-well microtiter plates were treated with aqueous test solutions prepared from 10,000 ppm DMSO stock solutions by spraying. After drying, the plates were infested with L2 larvae (6 to 10 per well). The samples were assessed for mortality and growth inhibition in comparison to untreated samples 4 days after infestation.

CCn1c(C(F)(F)F)cc2nc(-c3nc(C(=O)O)ccc3S(=O)(=O)CC)n(C)c2c1=O [Compound A4, 6-[5-ethyl-3-methyl-4-oxo-6-(trifluoromethyl)imidazo[4,5-c]pyridin-2-yl]-5-ethylsulfonyl-pyridine-2-carboxylic acid]
≥ 80%: mortality at 200 ppm [1]

CCn1c(C(F)(F)F)cc2nc(-c3ncc(N(C)C(=O)C4CC4)cc3S(=O)(=O)CC)n(C)c2c1=O [Compound A9, N-[6-[5-ethyl-3-methyl-4-oxo-6-(trifluoromethyl)imidazo[4,5-c]pyridin-2-yl]-5-ethylsulfonyl-3-pyridyl]-N-methyl-cyclopropanecarboxamide]
≥ 80%: mortality at 24 ppm [2] | percent effect (mortality or growth inhibition) at 200 ppm [3] | mortality at 200 ppm [4] | percent control (mortality, anti-feeding effect or growth inhibition) at 200 ppm [5] | percent effect (mortality or growth inhibition) at 200 ppm [6] | mortality at 200 ppm [7] | percent effect (mortality, anti-feeding or growth inhibition) at 12.5 ppm [8]

CCn1c(C(F)(F)F)cc2nc(-c3nc(C(=O)NC4CC4)ccc3S(=O)(=O)CC)n(C)c2c1=O [Compound A20, N-cyclopropyl-6-[5-ethyl-3-methyl-4-oxo-6-(trifluoromethyl)imidazo[4,5-c]pyridin-2-yl]-5-ethylsulfonyl-pyridine-2-carboxamide]
≥ 80%: mortality at 24 ppm [2] | percent effect (mortality or growth inhibition) at 200 ppm [3] | mortality at 200 ppm [4] | percent control (mortality, anti-feeding effect or growth inhibition) at 200 ppm [5] | percent effect (mortality or growth inhibition) at 200 ppm [6] | mortality at 200 ppm [7] | percent effect (mortality, anti-feeding or growth inhibition) at 12.5 ppm [8]

CCn1c(C(F)(F)F)cc2nc(-c3nc(NC4CC4)c(Cl)cc3S(=O)(=O)CC)n(C)c2c1=O [Compound A31, 2-[5-chloro-6-(cyclopropylamino)-3-ethylsulfonyl-2-pyridyl]-5-ethyl-3-methyl-6-(trifluoromethyl)imidazo[4,5-c]pyridin-4-one]
≥ 80%: percent effect (mortality or growth inhibition) at 200 ppm [3] | percent control (mortality, anti-feeding effect or growth inhibition) at 200 ppm [5] | percent effect (mortality or growth inhibition) at 200 ppm [6] | mortality at 200 ppm [7] | percent effect (mortality, anti-feeding or growth inhibition) at 12.5 ppm [8] | effect mortality or growth inhibition at 200 ppm [9]

CCn1c(C(F)(F)F)cc2nc(-c3nc(N(CC(F)(F)F)C(=O)C4CC4)ccc3S(=O)(=O)CC)n(C)c2c1=O [Compound A32, N-[6-[5-ethyl-3-methyl-4-oxo-6-(trifluoromethyl)imidazo[4,5-c]pyridin-2-yl]-5-ethylsulfonyl-2-pyridyl]-N-(2,2,2-trifluoroethyl)cyclopropanecarboxamide]
≥ 80%: percent control (mortality, anti-feeding effect or growth inhibition) at 200 ppm [5] | percent effect (mortality or growth inhibition) at 200 ppm [6] | effect mortality or growth inhibition at 200 ppm [9] | mortality at 200 ppm [1]

CCn1c(C(F)(F)F)cc2nc(-c3nc(NCC(F)(F)F)ccc3S(=O)(=O)CC)n(C)c2c1=O [Compound A34, 5-ethyl-2-[3-ethylsulfonyl-6-(2,2,2-trifluoroethylamino)-2-pyridyl]-3-methyl-6-(trifluoromethyl)imidazo[4,5-c]pyridin-4-one]
≥ 80%: percent control (mortality, anti-feeding effect or growth inhibition) at 200 ppm [5] | percent effect (mortality or growth inhibition) at 200 ppm [6] | effect mortality or growth inhibition at 200 ppm [9] | mortality at 200 ppm [1]

CCn1c(C(F)(F)F)cc2nc(-c3nc(N(C(=O)C4CC4)C(=O)C4CC4)c(Cl)cc3S(=O)(=O)CC)n(C)c2c1=O [Compound A40, N-[3-chloro-6-[5-ethyl-3-methyl-4-oxo-6-(trifluoromethyl)imidazo[4,5-c]pyridin-2-yl]-5-ethylsulfonyl-2-pyridyl]-N-(cyclopropanecarbonyl)cyclopropanecarboxamide]
≥ 80%: percent effect (mortality or growth inhibition) at 200 ppm [3] | mortality at 200 ppm [4] | percent control (mortality, anti-feeding effect or growth inhibition) at 200 ppm [5] | percent effect (mortality or growth inhibition) at 200 ppm [6] | mortality at 200 ppm [7] | percent effect (mortality, anti-feeding or growth inhibition) at 12.5 ppm [8] | effect mortality or growth inhibition at 200 ppm [9]

CCn1c(C(F)(F)F)cc2nc(-c3nc(NC(=O)C4CC4)c(Cl)cc3S(=O)(=O)CC)n(C)c2c1=O [Compound A41, N-[3-chloro-6-[5-ethyl-3-methyl-4-oxo-6-(trifluoromethyl)imidazo[4,5-c]pyridin-2-yl]-5-ethylsulfonyl-2-pyridyl]cyclopropanecarboxamide]
≥ 80%: percent effect (mortality or growth inhibition) at 200 ppm [3] | mortality at 200 ppm [4] | percent control (mortality, anti-feeding effect or growth inhibition) at 200 ppm [5] | percent effect (mortality or growth inhibition) at 200 ppm [6] | percent effect (mortality, anti-feeding or growth inhibition) at 12.5 ppm [8] | effect mortality or growth inhibition at 200 ppm [9]

CCS(=O)(=O)c1ccc(NN)nc1-c1nc2cc(C(F)(F)F)n(C3CC3)c(=O)c2n1C [Compound A45, 5-cyclopropyl-2-(3-ethylsulfonyl-6-hydrazino-2-pyridyl)-3-methyl-6-(trifluoromethyl)imidazo[4,5-c]pyridin-4-one]
≥ 80%: mortality at 24 ppm [2] | mortality at 200 ppm [4] | percent control (mortality, anti-feeding effect or growth inhibition) at 200 ppm [5] | percent effect (mortality or growth inhibition) at 200 ppm [6] | percent effect (mortality, anti-feeding or growth inhibition) at 12.5 ppm [8] | effect mortality or growth inhibition at 200 ppm [9]

CCS(=O)(=O)c1ccc(NC)nc1-c1nc2cc(C(F)(F)F)n(C3CC3)c(=O)c2n1C [Compound A51, 5-cyclopropyl-2-[3-ethylsulfonyl-6-(methylamino)-2-pyridyl]-3-methyl-6-(trifluoromethyl)imidazo[4,5-c]pyridin-4-one]
≥ 80%: mortality at 24 ppm [2] | percent effect (mortality or growth inhibition) at 200 ppm [3] | mortality at 200 ppm [4] | percent control (mortality, anti-feeding effect or growth inhibition) at 200 ppm [5] | percent effect (mortality or growth inhibition) at 200 ppm [6] | mortality at 200 ppm [7] | percent effect (mortality, anti-feeding or growth inhibition) at 12.5 ppm [8] | effect mortality or growth inhibition at 200 ppm [9]

CCn1c(C(F)(F)F)cc2nc(-c3ncc(N(C)N)cc3S(=O)(=O)CC)n(C)c2c1=O [Compound A56, 2-[5-[amino(methyl)amino]-3-ethylsulfonyl-2-pyridyl]-5-ethyl-3-methyl-6-(trifluoromethyl)imidazo[4,5-c]pyridin-4-one]
≥ 80%: percent effect (mortality or growth inhibition) at 200 ppm [3] | mortality at 200 ppm [4] | percent control (mortality, anti-feeding effect or growth inhibition) at 200 ppm [5] | percent effect (mortality or growth inhibition) at 200 ppm [6] | percent effect (mortality, anti-feeding or growth inhibition) at 12.5 ppm [8] | effect mortality or growth inhibition at 200 ppm [9]
